Data taken from patent US12492174B2, “Morpholine-3-carboxamide derivatives as prostaglandin E2 receptor 4 (EP4) agonists for the treatment of gastrointestinal and pulmonary diseases” (NXERA PHARMA UK LIMITED, priority 2022, dated 2025).

Assays:
[1] = biological target: T1, human EP4 (Homo sapiens, UniProt P35408); test: cAMP Gs functional assay (HTRF cAMP dynamic-2); type: cell-based; details: for Emax: HEK293, HEK293 cells transfected with EP4 Bacmam virus; for EC50: 30 mins at 37° C., −Log of the molarity (M), read-out: cAMP human EP4 pEC50 (converted)
T1 construct: expressed in transfected cells; host or cells: HEK293 cells transduced with EP4 BacMam virus
Method: Cloning, Baculovirus generation, large scale infection of HEK293 cells and membrane preparation: Human prostaglandin E2 receptor 4 (EP4) was cloned into pBacMam expression vector (GeneScript, UK). Transposition of EP4 DNA was performed using Invitrogen's Bac-to-Bac Baculovirus Expression Systems. P0 baculovirus was generated by transfecting SF9 Cells with bacmid DNA using Cellfectin II transfection reagent (ThermoFisher Scientific, UK). Following P0 generation P1 virus was then generated ready for large scale infection and membrane preparation. HEK293 cells were grown in DMEM (ThermoFisher Scientific, UK), supplemented with 10% heat inactivated fetal bovine serum (FBS). Cells were infected at a seeding density of 3.5 million cells/mL in 500 cm^3 flasks at 5% v/v EP4 Bacman. Expression was carried out over a 36 hr period at 37° C. with 5% CO2. The cells were removed using PBS and a cell scrapper. The cell culture was centrifuged at 2500 RPM for 10 mins at 4° C. The supernatant was then poured off and the pellet stored at −80° C. The pellet was defrosted and re-suspended in 15 mL of homogenising buffer (20 mM HEPES, 10 mM EDTA, pH 7.4). Then homogenised in mechanical homogeniser (VMR) for 10 seconds. The membrane was centrifuged in centrifuge tubes at 40,000 g for 15 mins at 4° C. The supernatant was poured away and re-suspended in 15 mL of homogenising buffer. Homogenised for 20 seconds. The membrane was centrifuged at 40,000 g for 45 mins at 4° C. The membrane was re-suspended in 3 mL of storage buffer (20 mM HEPES, 0.1 mM EDTA, pH 7.4) mixing well. The resulting membranes were then stored at −80° C.
cAMP Gs Functional Assay: cAMP production following EP4 receptor activation was determined using the Homogeneous Time-Resolved Fluorescence (HTRF) cAMP dynamic-2 assay (Cisbio, France). HEK293 cells were transfected using a 0.5% EP4 Bacmam virus for 36 hours, before dissociating the cells, and freezing at −150° C.
On the day of testing, increasing concentration of test compounds, alongside positive controls (10 uM PGE2 (Tocris, Abingdon, UK)) and negative control (DMSO (Sigma-Aldrich, UK) were added to a ProxiPlate-384 Plus, White 384-shallow well Mircoplate, (PerkinElmer, USA) using the ECHO dispense.
Cells were defrosted in a water bath and resuspended in DMEM supplemented with 10% FBS before centrifuging at 1200 RPM for 5 mins to form a pellet. The pellet was resuspended in assay buffer (DMEM+0.5 mM IBMX (Tocris, Abingdon, UK)) to 0.5×10^6 cells/mL. Cell suspension, for a final assay concentration of 5000 cell/well was added using the multidrop to the pre-dispensed assay plate. The plate was then incubated at 37° C. for 30 mins, with 5% CO2. The cAMP production was determined as manufacturer's instructions, before plates were read on a PheraStar fluorescence plate reader (BMG LabTech, Germany).
The pEC50 values (−Log of the molarity (M) in mol/liter) were calculated from the mid-point of the curve using dotmatics as shown in Table 3.

[2] = Unidirectional Caco-2 cell permeability assay; type: in vitro ADME; details: human, n=2, apical pH 6.5, basolateral pH 7.4, 1 hour, 37° C.
Method: Caco-2 cells (ECACC) were seeded onto 24-well Transwell plates at 2×10^5 cells per well and used in confluent monolayers after a 21 day culture at 37° C. under 5% CO2. Test compounds were incubated at 10 μM, 0.2% DMSO final, n=2 in assay buffer (Hanks balanced salt solution supplemented with 25 mM HEPES, adjusted to pH 6.5). Hanks balanced salt solution supplemented with 25 mM HEPES, adjusted to pH 7.4 (0.2% DMSO final) was used for the basolateral chamber (as receiver).
Incubations were performed at 37° C., with samples removed from both donor and acceptor chambers at T=0 and 1 hour and compound analysed by mass spectrometry (LC-MS/MS) including an analytical internal standard (0.5 μM carbamazepine).
Apparent permeability (Papp) values are shown in Table 4 and were determined from the relationship:
Where V is the volume of each Transwell compartment (apical 125 μL, basolateral 600 μL), and concentrations are the relative MS responses for compound (normalized to internal standard) in the donor chamber before incubation and acceptor chamber at the end of the incubation Area=area of cells exposed for drug transfer (0.33 cm^2).
Lucifer Yellow (LY) was added to the apical buffer in all wells to assess viability of the cell layer. As LY cannot freely permeate lipophilic barriers, a high degree of LY transport indicates poor integrity of the cell layer and wells with a LY Papp>10×10^−6 cm/s were rejected.
Compound recovery from the wells was determined from MS responses (normalized to internal standard) in donor and acceptor chambers at the end of incubation compared to response in the donor chamber pre-incubation.

[3] = HEK293 cells transfected with EP4 Bacmam virus

T1 sequence (P35408 whole entry): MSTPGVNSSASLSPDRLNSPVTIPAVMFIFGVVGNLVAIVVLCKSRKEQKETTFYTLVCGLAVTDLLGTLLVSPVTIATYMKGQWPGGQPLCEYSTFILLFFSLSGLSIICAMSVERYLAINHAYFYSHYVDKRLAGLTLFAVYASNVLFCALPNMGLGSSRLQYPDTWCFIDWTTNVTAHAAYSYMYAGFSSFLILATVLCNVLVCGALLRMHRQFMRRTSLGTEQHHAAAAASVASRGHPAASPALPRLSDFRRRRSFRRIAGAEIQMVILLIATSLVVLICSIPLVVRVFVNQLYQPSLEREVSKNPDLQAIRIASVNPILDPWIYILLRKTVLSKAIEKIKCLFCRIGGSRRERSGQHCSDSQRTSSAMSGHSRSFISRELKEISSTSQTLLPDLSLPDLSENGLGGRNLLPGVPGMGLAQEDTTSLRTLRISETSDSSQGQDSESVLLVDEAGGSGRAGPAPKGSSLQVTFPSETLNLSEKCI

Cc1cc(S(N)(=O)=O)ccc1-c1ccnc(CN2CCOC[C@@H]2C(=O)N[C@@H](C)c2ccc(C(=O)O)cc2)c1 [Example 17, 4-[(1S)-1-[[(3R)-4-[[4-(2-methyl-4-sulfamoyl-phenyl)-2-pyridyl]methyl]morpholine-3-carbonyl]amino]ethyl]benzoic acid]
Emax ([1]; positive control 10 uM PGE2): 98% | Papp A→B at 1 h, 10 μM [2]: 0.12 ×10⁻⁶ cm/s

Cc1cc(C(N)=O)ccc1-c1cccc(CN2CCOC[C@@H]2C(=O)NCc2ccc(C(=O)O)c(F)c2)c1 [Example 13, 4-[[[(3R)-4-[[3-(4-carbamoyl-2-methyl-phenyl)phenyl]methyl]morpholine-3-carbonyl]amino]methyl]-2-fluoro-benzoic acid]
Emax ([1]; positive control 10 uM PGE2): 96% | EC50 [1, 3]: 1.26e-08 M | Papp A→B at 1 h, 10 μM [2]: 0.32 ×10⁻⁶ cm/s

Cc1cc(C(N)=O)ccc1-c1cc(O)cc(CN2CCOC[C@@H]2C(=O)NC2(c3ccc(C(=O)O)cc3)CC2)c1 [Example 33, (R)-4-(1-(4-((4′-carbamoyl-5-hydroxy-2′-methyl-[1,1′-biphenyl]-3-yl)methyl)morpholine-3-carboxamido)cyclopropyl)benzoic acid]
Emax ([1]; positive control 10 uM PGE2): 93% | EC50 [1, 3]: 3.16e-12 M | Papp A→B at 1 h, 10 μM [2]: 0.14 ×10⁻⁶ cm/s

Cc1cc(C(N)=O)ccc1-c1cccc(CN2CCOC[C@@H]2C(=O)NC(C)c2cc(F)c(C(=O)O)c(F)c2)c1 (single isomer, unassigned) [Example 27]
EC50 [1, 3]: 2.51e-07 M | cAMP human EP4 Emax ([1]; HEK293 cells transfected with EP4 Bacmam virus, positive control 10 uM PGE2): 95%

Cc1cc(C(N)=O)ccc1-c1ccnc(CN2CCOC[C@@H]2C(=O)N[C@@H](C)c2ccc(C(=O)O)cc2)c1 [Example 4, 4-[(1S)-1-[[(3R)-4-[[4-(4-carbamoyl-2-methyl-phenyl)-2-pyridyl]methyl]morpholine-3-carbonyl]amino]ethyl]benzoic acid]
Emax ([1]; positive control 10 uM PGE2): 95% | EC50 [1, 3]: 6.31e-08 M | Papp A→B at 1 h, 10 μM [2]: 0.5 ×10⁻⁶ cm/s

C[C@H](NC(=O)[C@H]1COCCN1Cc1cccc(-c2ccc(C(N)=O)cc2O)c1)c1ccc(C(=O)O)cc1 [Example 14, 4-((S)-1-((R)-4-((4′-carbamoyl-2′-hydroxy-[1,1′-biphenyl]-3-yl)methyl)morpholine-3-carboxamido)ethyl)benzoic acid]
Emax ([1]; positive control 10 uM PGE2): 95% | EC50 [1, 3]: 7.94e-08 M | Papp A→B at 1 h, 10 μM [2]: 0.15 ×10⁻⁶ cm/s

Cc1cc(C(N)=O)ccc1-c1cccc(CN2CCOC[C@@H]2C(=O)N[C@@H](C)c2ccc(C(=O)O)cc2)c1 [Example 7, 4-((S)-1-((R)-4-((4′-carbamoyl-2′-methyl-[1,1′-biphenyl]-3-yl)methyl)morpholine-3-carboxamido)ethyl)benzoic acid]
Emax ([1]; positive control 10 uM PGE2): 99% | EC50 [1, 3]: 1.58e-09 M | Papp A→B at 1 h, 10 μM [2]: 0.66 ×10⁻⁶ cm/s

Cc1cc(OS(N)(=O)=O)ccc1-c1cccc(CN2CCOC[C@@H]2C(=O)N[C@@H](C)c2ccc(C(=O)O)cc2)c1 [Example 20, 4-((S)-1-((R)-4-((2′-methyl-4′-(sulfamoyloxy)-[1,1′-biphenyl]-3-yl)methyl)morpholine-3-carboxamido)ethyl)benzoic acid]
Emax ([1]; positive control 10 uM PGE2): 101% | EC50 [1, 3]: 5.01e-10 M

C[C@H](NC(=O)[C@H]1COCCN1Cc1ccc(O)c(-c2ccc(C(N)=O)cc2)c1)c1ccc(C(=O)O)cc1 [Example 23, 4-[(1S)-1-[[(3R)-4-[[3-(4-carbamoylphenyl)-4-hydroxy-phenyl]methyl]morpholine-3-carbonyl]amino]ethyl]benzoic acid]
Emax ([1]; positive control 10 uM PGE2): 93% | EC50 [1, 3]: 1e-08 M | Papp A→B at 1 h, 10 μM [2]: 0.48 ×10⁻⁶ cm/s

Cc1cc(C(N)=O)ccc1-c1cccc(CN2CCOC[C@@H]2C(=O)NCc2ccc(C(=O)O)nc2)c1 [Example 9, 5-[[[(3R)-4-[[3-(4-carbamoyl-2-methyl-phenyl)phenyl]methyl]morpholine-3-carbonyl]amino]methyl]pyridine-2-carboxylic acid]
Emax ([1]; positive control 10 uM PGE2): 97% | EC50 [1, 3]: 3.98e-08 M | Papp A→B at 1 h, 10 μM [2]: 0.24 ×10⁻⁶ cm/s

Cc1cc(C(N)=O)ccc1-c1cncc(CN2CCOC[C@@H]2C(=O)N[C@@H](C)c2ccc(C(=O)O)cc2)c1 [Example 1, 4-((S)-1-((R)-4-((5-(4-carbamoyl-2-methylphenyl)pyridin-3-yl)methyl)morpholine-3-carboxamido)ethyl)benzoic acid]
Emax ([1]; positive control 10 uM PGE2): 96% | EC50 [1, 3]: 1e-08 M | Papp A→B at 1 h, 10 μM [2]: 0.24 ×10⁻⁶ cm/s

Cc1cc(C(N)=O)ccc1-c1cc(CN2CCOC[C@@H]2C(=O)N[C@@H](C)c2ccc(C(=O)O)cc2)c[n+]([O-])c1 [Example 30, 3-(4-carbamoyl-2-methylphenyl)-5-(((R)-3-(((S)-1-(4-carboxyphenyl)ethyl)carbamoyl)morpholino)methyl)pyridine 1-oxide]
Emax ([1]; positive control 10 uM PGE2): 93% | EC50 [1, 3]: 1.58e-07 M

Cc1cc(C(N)=O)ccc1-c1cccc(CN2CCOC[C@@H]2C(=O)NC(C)c2cc(F)c(C(=O)O)c(F)c2)c1 (single isomer, unassigned) [Example 26]
Emax ([1]; positive control 10 uM PGE2): 97%

Cc1cc(C(N)=O)ccc1-c1cccc(CN2CCOC[C@@H]2C(=O)N[C@@H](C)c2ccc(C(=O)O)cc2)n1 [Example 2, 4-[(1S)-1-[[(3R)-4-[[6-(4-carbamoyl-2-methyl-phenyl)-2-pyridyl]methyl]-morpholine-3-carbonyl]amino]ethyl]benzoic acid]
Emax ([1]; positive control 10 uM PGE2): 89% | EC50 [1, 3]: 1e-06 M

Cc1cc(C(N)=O)ccc1-c1cc(O)cc(CN2CCOC[C@H]2C(=O)N[C@@H](C)c2ccc(C(=O)O)cc2)c1 [Example 37, 4-((S)-1-((S)-4-((4′-carbamoyl-5-hydroxy-2′-methyl-[1,1′-biphenyl]-3-yl)methyl)morpholine-3-carboxamido)ethyl)benzoic acid]
EC50 [1, 3]: > 1e-07 M | Papp A→B at 1 h, 10 μM [2]: < 0.1 ×10⁻⁶ cm/s

NC(=O)c1ccc(-c2cccc(CN3CCOC[C@@H]3C(=O)NC3(c4ccc(C(=O)O)cc4)CC3)c2)c(O)c1 [Example 32, (R)-4-(1-(4-((4′-carbamoyl-2′-hydroxy-[1,1′-biphenyl]-3-yl)methyl)morpholine-3-carboxamido)cyclopropyl)benzoic acid]
Emax ([1]; positive control 10 uM PGE2): 91% | EC50 [1, 3]: 6.31e-10 M | Papp A→B at 1 h, 10 μM [2]: 0.15 ×10⁻⁶ cm/s

Cc1cc(C(N)=O)ccc1-c1cccc(CN2CCOC[C@@H]2C(=O)NCc2cc(F)c(C(=O)O)c(F)c2)c1 [Example 8, 4-[[[(3R)-4-[[3-(4-carbamoyl-2-methyl-phenyl)phenyl]methyl]morpholine-3-carbonyl]amino]methyl]-2,6-difluoro-benzoic acid]
Emax ([1]; positive control 10 uM PGE2): 96% | EC50 [1, 3]: 1.58e-07 M | Papp A→B at 1 h, 10 μM [2]: < 0.1 ×10⁻⁶ cm/s

C[C@H](NC(=O)[C@H]1COCCN1Cc1cccc(-c2ccc(S(N)(=O)=O)cc2O)c1)c1ccc(C(=O)O)cc1 [Example 29, 4-((S)-1-((R)-4-((2′-hydroxy-4′-sulfamoyl-[1,1′-biphenyl]-3-yl)methyl)morpholine-3-carboxamido)ethyl)benzoic acid]
Emax ([1]; positive control 10 uM PGE2): 97%
